Like-named read-outs stand apart in the source and are kept apart here.
Key:
Du145 = assay: High-throughput calcein AM cytotoxicity assay, Du145; type: cell-based, human
Description: (§1) Standard errors are depicted with error bars.

MCF7 = assay: High-throughput calcein AM cytotoxicity assay, MCF7; type: cell-based, human; conditions: read-out: IC50, MCF7
Description: as §1

HCT-116 = assay: High-throughput calcein AM cytotoxicity assay, HCT-116; type: cell-based, human; conditions: read-out: IC50, HCT-116
Description: as §1

Hep3B = assay: High-throughput calcein AM cytotoxicity assay, Hep3B; type: cell-based, human
Description: as §1

NCI-H460 = assay: High-throughput calcein AM cytotoxicity assay, NCI-H460; type: cell-based, human; conditions: read-out: IC50, NCI-H460
Description: as §1

A549 = assay: High-throughput calcein AM cytotoxicity assay, A549; type: cell-based, human; conditions: read-out: IC50, A549
Description: as §1

NCI/ADR-RES = assay: cells; type: cell-based, human
In short: (§2)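 Cells were attached for 1 h, then exposed to five 2-fold dilutions of compound for 72 h. Viability is read as calcein AM conversion to fluorescent calcein (ex 485/em 535 nm). IC50 comes from a four-parameter logistic fit of ≥6 dose-response replicates; NmuMG was grown in DMEM with insulin, the others in RPMI/10% FBS.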

SF-268 = assay: cells; type: cell-based, human
In short: as §2

SK-OV-3 = assay: cells; type: cell-based, human
In short: as §2

NmuMG = assay: cells; type: cell-based, mouse
In short: as §2

[1] = test system: nine human cancer cell lines and a mouse mammary normal epithelial control line; assay: High-throughput calcein AM cytotoxicity assay, whole cell line panel; conditions: for cytotoxicity (in words): cell line panel, 72 h, calcein AM
Description: In the assay, live cells were distinguished by the presence of a ubiquitous intracellular enzymatic activity which converts the non-fluorescent cell-permeable molecule calcein AM to the intensely fluorescent molecule calcein, which is retained within live cells. The IC50 value for each library member represents at least six replicates of dose-response experiments conducted over five concentrations using two-fold dilutions. […] Standard errors are depicted with error bars. Numerical values and corresponding error values can be found in Table 4. Du145: […]; MCF7: human breast carcinoma; HCT-116: human colon carcinoma, Hep3B: human liver carcinoma; SF-268: human CNS glioblastoma; SK-OV-3: human ovary adenocarcinoma; NCI-H460: human lung carcinoma; A549: human lung adenocarcinoma; NCI/ADR-RES: human breast carcinoma; NmuMG: mouse mammary normal epithelial.
Cell Culture: All cell lines except NmuMG were maintained in RPMI 1640 medium from InVitrogen (Cat No. 11875-085) supplemented with 10% w/v fetal bovine serum (FBS) from ICN (Cat No. 2916154) and penicillin-streptomycin (PS) (100 U/mL and 100 μg/mL) from InVitrogen (Cat No. 15140-122). NmuMG cells were maintained in DMEM medium from InVitrogen (Cat No. 11965-084) supplemented with 10% w/v fetal bovine serum (FBS) from ICN (Cat No. 2916154), 10 μg/ml insulin (InVitrogen Cat No 12585-014), and penicillin-streptomycin (PS) (100 U/mL and 100 μg/mL) from InVitrogen (Cat No. 15140-122). Cells were harvested by trypsinization using 0.25% w/v trypsin and 0.1% w/v EDTA from InVitrogen (Cat No. 15-050-057) and then counted in a hemocytometer in duplicate with better than 10% agreement in field counts. Cells were plated at a cell density of 10,000-15,000 cells/well of each Corning Costar 96-well black tissue culture treated microtiter plate (Fisher Cat No. 07-200-627). Cells were grown for 1 h at 37° C., with 5% CO2 in a humidified incubator to allow cell attachment to occur before compound addition.
Library Member Handling and Preparation for Cytotoxicity Assays: Library members were stored at −20° C. under dessicating conditions before the assay. Library member stocks (100×) were prepared in Corning Costar polypropylene 96-well V-bottom polypropylene microtiter plates (Fisher Cat No. 07-200-695). Five serial 1:2 dilutions were made with anhydrous DMSO at 100× the final concentration used in the assay.
Library Member Addition: The library member-containing plates were diluted 1:10 with complete cell culture media. The 10× stocks (10 μL) were added to the attached cells using a Biomek FX liquid handler (Beckman-Coulter). Library member stocks (10 μL) were added to 90 μL of cells in each plate to insure full mixing of stocks with culture media using a Beckman FX liquid handler with 96-well head.
Determination of Cytotoxicity: Cells were incubated with the library members for 72 h before fluorescence reading. Test plates were removed from the incubator and washed 1× in sterile PBS to remove serum containing calcium esterases. Calcein AM reagent (30 μL, […]) was added and the cells were incubated for 30 min at 37° C. Plates were read for emission using a fluorescein filter (excitation 485 nm, emission 535 nm).
IC50 Calculation: For each library member, at least six dose response experiments were conducted. […] To calculate IC50, percent inhibitions were plotted as a function of log [concentration] and then fit to a four-parameter logistic model that allowed for a variable Hill slope using XLfit 4.1.
Cytotoxicity Assays. All cell lines except NmuMG were maintained in RPMI 1640 medium supplemented with 10% w/v fetal bovine serum (FBS) and penicillin-streptomycin (PS) (100 U/mL and 100 μg/mL).

Na+/K+-ATPase [2] = target: T1, Na+/K+-ATPase (Homo sapiens, UniProt P05023); assay: Non-radioactive rubidium ion uptake assay, HEK-293 cells; type: cell-based; conditions: read-out: Na+/K+-ATPase Inhibition IC50
T1 construct: endogenous in cells; host or cells: HEK-293
Description: (§3) Na/K-ATPase Assays. Inhibition of Na^+/K^+-ATPase on HEK-293 cells and CHO-K1 cells by the library hits was determined by Aurora Biomed, Inc. using a high-throughput non-radioactive rubidium ion uptake assay. Experiments were conducted in duplicate using three different concentrations. Within each experiment, percent inhibition values at the three concentrations were expressed as the percent reduction of the maximum absorption signal observed for a 0 nM control. IC50 values were determined using the following formula: IC50=[(50−low %)/(high %−low %)]×(high conc.−low conc.)+low conc.
(§4) To assess how these structural modifications impact the ability of library members to inhibit Na^+/K^+-ATPases, a fundamental activity of cardiac glycosides (Paula, S., et al., (2005) Biochemistry 44, 498-510), library hits 5β, 15β, 23β, 27β, 33β, 40β, and digitoxin (1) were submitted to a non-radioactive rubidium uptake assay to gauge Na^+/K^+-ATPase inhibition in both […] human embryonic kidney cells and CHO-K1 hamster ovary cells (Gill, S. et al., (2004) ASSAY and Drug Development Technologies 2, 535-542).

Na+/K+-ATPase [3] = target: Na+/K+-ATPase (Cricetulus griseus, UniProt A0A8C2N4Z0); assay: Non-radioactive rubidium ion uptake assay, CHO-K1 cells; type: cell-based, hamster; conditions: read-out: Na+/K+-ATPase Inhibition IC50
Description: as §3, §4

[4] = Du145 cells, read-out: IC50, Du145
[5] = Hep 3B cells, read-out: IC50, Hep 3B
[6] = NCI/ADR-RES cells, read-out: IC50, NCI/ADR-RES
[7] = SF-268 cells, read-out: IC50, SF-268
[8] = SK-OV-3 cells, read-out: IC50, SK-OV-3
[9] = NmuMG mouse mammary normal epithelial control line; read-out: IC50, NmuMG
[10] = Mus musculus, read-out: IC50, NmuMG
[11] = read-out: IC50, NCI/ADR-RES, NCI/ADR-RES cells
[12] = read-out: IC50, SF-268, SF-268 cells
[13] = read-out: IC50, SK-OV-3, SK-OV-3 cells

| Compound | IC50 (Du145; [4]) [nM] | IC50 (MCF7; MCF7 cells) [nM] | IC50 (HCT-116; HCT-116 cells) [nM] | IC50 (Hep3B; [5]) [nM] | IC50 (NCI-H460; NCI-H460 cells) [nM] | IC50 (A549; A549 cells) [nM] | IC50 (NCI/ADR-RES; [6]) [nM] | IC50 (SF-268; [7]) [nM] | IC50 (SK-OV-3; [8]) [nM] | IC50 (NmuMG; [9]) [nM] | cytotoxicity (in words) [1] | IC50 (Na+/K+-ATPase [2]) [nM] | further results |
| --- | --- | --- | --- | --- | --- | --- | --- | --- | --- | --- | --- | --- | --- |
| 6-deoxy-6-azido-D-mannoside [41β] | 2000 | 3300 | 6000 | 1800 | 2700 | 1700 | 840 | 2500 | 2100 | > 25000 | not active |  |  |
| CON(C1CCC2(C)C(CCC3C2CCC2(C)C(C4=CC(=O)OC4)CCC32O)C1)C1OCC(O)C(O)C1O [15β, D-lyxoside] |  |  |  |  |  |  |  |  |  |  | significantly more potent than digitoxin against some cell lines | > 300000 | IC50 (Du145; Homo sapiens, DU-145, Du145 cells, read-out: IC50, Du145): 70 nM; IC50 (MCF7; Homo sapiens, MCF7, MCF7 cells): 230 nM; IC50 (HCT-116; Homo sapiens, HCT-116, HCT-116 cells): 170 nM; IC50 (Hep3B; Homo sapiens, Hep3B, Hep 3B cells, read-out: IC50, Hep 3B): 90 nM; IC50 (NCI-H460; Homo sapiens, NCI-H460, NCI-H460 cells): 90 nM; IC50 (A549; Homo sapiens, A549, A549 cells): 140 nM; IC50 (NCI/ADR-RES; Homo sapiens, NCI/ADR-RES, read-out: IC50, NCI/ADR-RES, NCI/ADR-RES cells): 75 nM; IC50 (SF-268; Homo sapiens, SF-268, read-out: IC50, SF-268, SF-268 cells): 90 nM; IC50 (SK-OV-3; Homo sapiens, SK-OV-3, read-out: IC50, SK-OV-3, SK-OV-3 cells): 160 nM; IC50 (NmuMG; [10]): 69 nM |
| CON([C@H]1CC[C@@]2(C)[C@H](CC[C@@H]3[C@@H]2CC[C@]2(C)[C@@H](C4=CC(=O)OC4)CC[C@]32O)C1)[C@@H]1O[C@H](CO)[C@@H](O)[C@H](O)[C@H]1O [4β, D-glucoside] | 8200 | 10000 | 3800 | 2400 | 3500 | 2900 | 1900 | 4500 | 6000 | 3100 | relatively inactive |  |  |
| CON([C@H]1CC[C@@]2(C)[C@H](CC[C@@H]3[C@@H]2CC[C@]2(C)[C@@H](C4=CC(=O)OC4)CC[C@]32O)C1)[C@H]1OC[C@H](O)[C@H](O)[C@H]1O [32β, L-arabinoside] | 1100 | 2200 | 300 | 1200 | 720 | 1700 | 650 | 1000 | 3000 | 400 | relatively inactive |  |  |
| CON(C1CCC2(C)C(CCC3C2CCC2(C)C(C4=CC(=O)OC4)CCC32O)C1)C1OC(CO)C(O)C(O)C1O [40β, D-taloside] |  | 1400 | 1900 |  | 800 | 410 | 1900 | 1300 | 490 | 480 |  | > 200000 | IC50 (Du145; Du145, 72 h, calcein AM, read-out: IC50): 200 nM; IC50 (Hep3B; Hep3B, 72 h, calcein AM, read-out: IC50): 180 nM; IC50 (Na+/K+-ATPase [3]): 180000 nM |
| CONC1CC[C@]2(C)C3CC[C@]4(C)[C@@H](C5=CC(=O)OC5)CC[C@]4(O)C3CC[C@@H]2C1 (stereo partly drawn) [3β, R—C(3)aglycon] | 1300 | 1800 | 1200 | 1400 | 700 | 1200 |  |  |  |  |  |  | IC50 (NCI/ADR-RES; [11]): 710 nM; IC50 (SF-268; [12]): 1000 nM; IC50 (SK-OV-3; [13]): 900 nM; IC50 (NmuMG; [10]): > 25000 nM; IC50 ([1]; Homo sapiens, read-out: average IC50): ~1100 nM |
| CONC1CC[C@]2(C)C3CC[C@]4(C)[C@@H](C5=CC(=O)OC5)CC[C@]4(O)C3CC[C@@H]2C1 (stereo partly drawn) [3α, S—C(3) aglycon] | 2900 | 13000 | 9000 |  | 2400 | 8300 |  |  |  |  |  |  | IC50 (NCI/ADR-RES; [11]): 5100 nM; IC50 (SF-268; [12]): 3500 nM; IC50 (SK-OV-3; [13]): 3000 nM; IC50 (NmuMG; read-out: IC50, NmuMG; NmuMG mouse mammary normal epithelial control line): > 25000 nM; IC50 ([1]; Homo sapiens): > 25000 nM |
| CON(C1CCC2(C)C(CCC3C2CCC2(C)C(C4=CC(=O)OC4)CCC32O)C1)C1OC(COC2OC(CO)C(O)C(O)C2O)C(O)C(O)C1O (stereo not drawn) [35β, melibioside] | 27000 | > 25000 | > 25000 | 26000 | 29000 | > 25000 | 16000 | > 25000 | 15000 | > 25000 |  |  | IC50 ([1]; all cell lines): > 25000 nM |
| D-arabinoside [33β] | 170 | 300 | 360 | 260 | 330 | 340 | 124 | 160 | 470 | 120 | closely mimicked this activity | > 300000 | IC50 (Na+/K+-ATPase [3]): 170000 nM |

Source: patent publication US8507411B2, “Neoglycorandomization and digitoxin analogs” (priority 2004, dated 2013)
